What was measured:
PC-3 = assay: Cytotoxicity against human androgen receptor negative PC3 cells after 72 hrs by MTT assay; format: functional, cell-based; conditions: PC-3, 72 h
LNCaP = assay: Cytotoxicity against human androgen receptor positive LNCAP cells after 72 hrs by MTT assay; format: functional, cell-based

| SMILES | IC50 (PC-3) | IC50 (LNCaP) |
| --- | --- | --- |
| C[C@]12CC[C@H]3[C@@H]([C@@H](C/C=C/C[C@H]4CC5=CC(=O)CC[C@]5(C)[C@H]5CC[C@]6(C)[C@@H](O)CC[C@H]6[C@H]45)CC4=CC(=O)CC[C@@]43C)[C@@H]1CC[C@@H]2O | 35.7 µM | – |
| C[C@]12CC[C@H]3[C@@H]([C@@H](C/C=C\C[C@H]4CC5=CC(=O)CC[C@]5(C)[C@H]5CC[C@]6(C)[C@@H](O)CC[C@H]6[C@H]45)CC4=CC(=O)CC[C@@]43C)[C@@H]1CC[C@@H]2O | 24.7 µM | 30.3 µM |
| CC(=O)O[C@]1(C(C)=O)CC[C@H]2[C@@H]3C=C(Cl)C4=CC(=O)[C@@H]5C[C@@H]5[C@]4(C)[C@H]3CC[C@@]21C [CYPROTERONE ACETATE] | 32.3 µM | 43 µM |
